PubChem BioAssay (NCI)
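Cells were grown in 96-well plates and exposed to each compound for 48 hours at five concentrations; endpoints were interpolated linearly between bracketing concentrations, or set to the highest concentration if not reached. GI50: concentration for 50% inhibition of growth. TGI: concentration producing complete growth inhibition.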

Tests used:
Assay in all cases: NCI-60 cell line screen, 48 h
MCF7 breast = tested on: MCF7 breast
786-0 renal = tested on: 786-0 renal
KM12 colon = tested on: KM12 colon
HOP-92 NSCLC = tested on: HOP-92 NSCLC
RXF 393 renal = tested on: RXF 393 renal
NCI-H460 lung = tested on: NCI-H460 lung
UO-31 renal = tested on: UO-31 renal
NCI/ADR-RES ovarian = tested on: NCI/ADR-RES ovarian
TK-10 renal = tested on: TK-10 renal
U251 CNS = tested on: U251 CNS
UACC-257 melanoma = tested on: UACC-257 melanoma
OVCAR-8 ovarian = tested on: OVCAR-8 ovarian
DU-145 prostate = tested on: DU-145 prostate
OVCAR-4 ovarian = tested on: OVCAR-4 ovarian
CAKI-1 renal = tested on: CAKI-1 renal
EKVX NSCLC = tested on: EKVX NSCLC
OVCAR-5 ovarian = tested on: OVCAR-5 ovarian
NCI-H226 lung = tested on: NCI-H226 lung
HT29 colon = tested on: HT29 colon
SK-MEL-2 melanoma = tested on: SK-MEL-2 melanoma
T-47D breast = tested on: T-47D breast
MDA-MB-231 breast = tested on: MDA-MB-231 breast
PC-3 prostate = tested on: PC-3 prostate
NCI-H522 lung = tested on: NCI-H522 lung
HCC-2998 colon = tested on: HCC-2998 colon
SW-620 colon = tested on: SW-620 colon
SN12C renal = tested on: SN12C renal
CCRF-CEM leukemia = tested on: CCRF-CEM leukemia
A549 NSCLC = tested on: A549 NSCLC
HOP-62 NSCLC = tested on: HOP-62 NSCLC
IGROV1 ovarian = tested on: IGROV1 ovarian
HS 578T breast = tested on: HS 578T breast
UACC-62 melanoma = tested on: UACC-62 melanoma
OVCAR-3 ovarian = tested on: OVCAR-3 ovarian
LOX IMVI melanoma = tested on: LOX IMVI melanoma
MOLT-4 leukemia = tested on: MOLT-4 leukemia
BT-549 breast = tested on: BT-549 breast
SNB-19 CNS = tested on: SNB-19 CNS
SK-MEL-28 melanoma = tested on: SK-MEL-28 melanoma
COLO 205 colon = tested on: COLO 205 colon
SF-539 CNS = tested on: SF-539 CNS
M14 melanoma = tested on: M14 melanoma
NCI-H23 lung = tested on: NCI-H23 lung
SK-OV-3 ovarian = tested on: SK-OV-3 ovarian
RPMI-8226 leukemia = tested on: RPMI-8226 leukemia
K-562 leukemia = tested on: K-562 leukemia
SNB-75 CNS = tested on: SNB-75 CNS
MDA-MB-435 = tested on: MDA-MB-435
SF-268 CNS = tested on: SF-268 CNS
SK-MEL-5 melanoma = tested on: SK-MEL-5 melanoma
SF-295 CNS = tested on: SF-295 CNS
ACHN renal = tested on: ACHN renal
HCT-15 colon = tested on: HCT-15 colon
HCT-116 colon = tested on: HCT-116 colon

O=S(=O)(NC(=S)Nc1ccccc1)c1ccc(N2N=C3c4ccccc4CC3C2c2cccs2)cc1 (stereo not drawn)
GI50 (MCF7 breast): 3.7 µM | TGI (MCF7 breast): > 100 µM | GI50 (786-0 renal): 19.7 µM | TGI (786-0 renal): 40.4 µM | GI50 (KM12 colon): 21.5 µM | TGI (KM12 colon): > 100 µM | GI50 (HOP-92 NSCLC): 24.9 µM | TGI (HOP-92 NSCLC): 71.7 µM | GI50 (RXF 393 renal): 78.1 µM | TGI (RXF 393 renal): > 100 µM | GI50 (NCI-H460 lung): 24.6 µM | TGI (NCI-H460 lung): > 100 µM | GI50 (UO-31 renal): 51.2 µM | TGI (UO-31 renal): > 100 µM | GI50 (NCI/ADR-RES ovarian): 19.3 µM | TGI (NCI/ADR-RES ovarian): 44.5 µM | GI50 (TK-10 renal): 12.2 µM | TGI (TK-10 renal): 39.7 µM | GI50 (U251 CNS): 26.2 µM | TGI (U251 CNS): 76.7 µM | GI50 (UACC-257 melanoma): 29.1 µM | TGI (UACC-257 melanoma): 79.9 µM | GI50 (OVCAR-8 ovarian): 39 µM | TGI (OVCAR-8 ovarian): > 100 µM | GI50 (DU-145 prostate): 17.8 µM | TGI (DU-145 prostate): 41.5 µM | GI50 (OVCAR-4 ovarian): 69.8 µM | TGI (OVCAR-4 ovarian): > 100 µM | GI50 (CAKI-1 renal): 18.5 µM | TGI (CAKI-1 renal): 43.8 µM | GI50 (EKVX NSCLC): 19.5 µM | TGI (EKVX NSCLC): 54.4 µM | GI50 (OVCAR-5 ovarian): 17.9 µM | TGI (OVCAR-5 ovarian): 41.1 µM | GI50 (NCI-H226 lung): 27.2 µM | TGI (NCI-H226 lung): 55.4 µM | GI50 (HT29 colon): 36.2 µM | TGI (HT29 colon): > 100 µM | GI50 (SK-MEL-2 melanoma): 59.9 µM | TGI (SK-MEL-2 melanoma): > 100 µM | GI50 (T-47D breast): > 100 µM | TGI (T-47D breast): > 100 µM | GI50 (MDA-MB-231 breast): 24.8 µM | TGI (MDA-MB-231 breast): 62.3 µM | GI50 (PC-3 prostate): 22.9 µM | TGI (PC-3 prostate): 54.4 µM | GI50 (NCI-H522 lung): 32.8 µM | TGI (NCI-H522 lung): > 100 µM | GI50 (HCC-2998 colon): 13.9 µM | TGI (HCC-2998 colon): 30.8 µM | GI50 (SW-620 colon): 30 µM | TGI (SW-620 colon): > 100 µM | GI50 (SN12C renal): 21.4 µM | TGI (SN12C renal): 43.2 µM | GI50 (CCRF-CEM leukemia): 30.5 µM | TGI (CCRF-CEM leukemia): 85.9 µM | GI50 (A549 NSCLC): 15.7 µM | TGI (A549 NSCLC): > 100 µM | GI50 (HOP-62 NSCLC): 20.3 µM | TGI (HOP-62 NSCLC): 45.7 µM | GI50 (IGROV1 ovarian): 65.3 µM | TGI (IGROV1 ovarian): > 100 µM | GI50 (HS 578T breast): 20.9 µM | TGI (HS 578T breast): 68 µM | GI50 (UACC-62 melanoma): 18.5 µM | TGI (UACC-62 melanoma): 37.3 µM | GI50 (OVCAR-3 ovarian): 17.2 µM | TGI (OVCAR-3 ovarian): 46.9 µM | GI50 (LOX IMVI melanoma): 24.4 µM | TGI (LOX IMVI melanoma): 70.7 µM | GI50 (MOLT-4 leukemia): 17.5 µM | TGI (MOLT-4 leukemia): > 100 µM | GI50 (BT-549 breast): 24.6 µM | TGI (BT-549 breast): 66.2 µM | GI50 (SNB-19 CNS): 33.8 µM | TGI (SNB-19 CNS): > 100 µM | GI50 (SK-MEL-28 melanoma): 53.8 µM | TGI (SK-MEL-28 melanoma): > 100 µM | GI50 (COLO 205 colon): 41.9 µM | TGI (COLO 205 colon): > 100 µM | GI50 (SF-539 CNS): 22.7 µM | TGI (SF-539 CNS): 46.3 µM | GI50 (M14 melanoma): 22.7 µM | TGI (M14 melanoma): 46.3 µM | GI50 (NCI-H23 lung): 17.6 µM | TGI (NCI-H23 lung): 39.5 µM | GI50 (SK-OV-3 ovarian): 49.5 µM | TGI (SK-OV-3 ovarian): > 100 µM | GI50 (RPMI-8226 leukemia): 30.3 µM | TGI (RPMI-8226 leukemia): 97.6 µM | GI50 (K-562 leukemia): 31.3 µM | TGI (K-562 leukemia): 56.5 µM | GI50 (SNB-75 CNS): 71.9 µM | TGI (SNB-75 CNS): > 100 µM | GI50 (MDA-MB-435): 19.4 µM | TGI (MDA-MB-435): 45.6 µM | GI50 (SF-268 CNS): 30.7 µM | TGI (SF-268 CNS): > 100 µM | GI50 (SK-MEL-5 melanoma): 20.8 µM | TGI (SK-MEL-5 melanoma): 44.7 µM | GI50 (SF-295 CNS): 18.9 µM | TGI (SF-295 CNS): 41.8 µM | GI50 (ACHN renal): 26.4 µM | TGI (ACHN renal): 67.7 µM | GI50 (HCT-15 colon): 22.6 µM | TGI (HCT-15 colon): 63.5 µM | GI50 (HCT-116 colon): 15.1 µM | TGI (HCT-116 colon): 34.8 µM
